Reference: patent US12310967B2, “Compositions and methods of treatment for neurological disorders comprising motor neuron diseases” (Gliapharm SA, priority 2017, dated 2025)
Read-outs that look alike come from different tables or passages of the source.

Test system: primary astrocytes
Assay: Extracellular lactate quantification
Format: cell-based, mouse
Conditions: Appendix II; for Score Lact.: CDC54K library; for EC50: lactate secretion, read-out: EC50
Procedure: Secretion of L-lactate was determined in the extracellular medium of 96-well plated astrocytes after 90 min stimulation (at 37° C., in 5% CO2/95% air conditions) with the drug of interest. The stimulation medium was composed of D5030 medium (completed with D-glucose 5 mM and 44 mM sodium bicarbonate) for 90 min in concentrations ranging from 0 to 100 μM.
Briefly, 200 μl of a Glycine (Sigma)-Semicarbazide (Acros) 0.2M pH 10 buffer containing 3 mM NAD (Roche) and LDH 14 U/ml (Roche) was added to each well of a 96-well plate containing 30 μl aliquots complemented with 20 μl fresh complete D5030 medium. Samples were incubated at 37° C. for 1 h. After samples cooled down at room temperature, the fluorescence intensity (340 nm excitation/450 nm emission) that represents the amount of NADH produced was measured, and lactate concentration values were determined from a standard curve of L-lactate.
Statistical analysis consisted in ANOVA followed by Fisher LSD post-hoc test for pair-wise comparisons.
Levels of lactate secreted by astrocytes were measured in the extracellular medium at 90 min after stimulation with hits (molecules) from the CDC54K library.

## CCc1c(C)nc2ncnn2c1NC1CCCCCC1 [Z606-8351]
  Score Lact.: 0.42

## Cc1ccc(OCCn2c(C)nc3ccccc32)cc1 [T5444083]
  Score Lact.: 0.51

## COc1cccc(C(CNc2nc(C(C)(C)C)nc3ccccc23)N(C)C)c1 (stereo not shown) [T5800607]
  Score Lact.: 063
Mus musculus, Astrocyte
  EC50: 5.87 µM

## CC(=O)N1CC(C)(C)c2cc(S(=O)(=O)Nc3ccc(I)cc3C)ccc21 [L302-0181]
  Score Lact.: 0.52
Mus musculus, Astrocyte
  EC50: 5.05 µM

## CCc1cc2c(NC3CCCC3)ncnc2s1 [887-0183]
  Score Lact.: 0.66

## CCCCn1c(CN(C)Cc2ccccc2)nc2c1c(=O)n(C)c(=O)n2C [T5788545]
  Score Lact.: 0.45

## COc1ccc(CCNc2ncnc3c2cnn3C)cc1 [K405-2595]
  Score Lact.: 0.70

## C1=Cc2ncnc(NCc3ccc4c(c3)OCO4)c2C1 [T5787526]
  Score Lact.: 0.71
Mus musculus, Astrocyte
  EC50: 3.89 µM

## Cn1nc(C(=O)Nc2ccc(Oc3ccccc3Cl)cc2)ccc1=O [T5813085]
  Score Lact.: 1.01

## Cc1nc2ncnn2c(NC2CCCCCC2)c1C [Z606-8287]
  Score Lact.: 0.57

## CCNc1cc(C)nc(Nc2ccc(NC(=O)Cc3ccccc3)cc2)n1 [G869-0064]
  Score Lact.: 0.54

## CC(C)(C)c1cccc(CNc2ncnc3[nH]ncc23)c1 [F5285-0069]
  Score Lact.: 0.36
Mus musculus, Astrocyte
  EC50: 6.29 µM

## CCc1c(C)nc2ncnn2c1NC1CCCCC1 [Z606-8352]
  Score Lact.: 0.83

## Cc1[nH]c2nc(CNc3nc4ccccc4c(=O)n3C)[nH]c(=O)c2c1C [T0517-2783]
  Score Lact.: 0.46
Mus musculus, Astrocyte
  EC50: 3.84 µM

## Cc1noc2ncnc(NC(C)CCc3ccccc3)c12 (stereo not shown) [E944-0182]
  Score Lact.: 0.55

## C1=C(c2ccccc2)c2c(ncnc2NCCN2CCOCC2)C1.O=C(O)C(=O)O.O=C(O)C(=O)O [T0513-0213]
  Score Lact.: 0.30
Mus musculus, Astrocyte
  EC50: 3.99 µM

## O=c1[nH]nc(SCCOc2ccc(Br)cc2)n1C1CC1 [T533260]
  Score Lact.: 0.53
Mus musculus, Astrocyte
  EC50: 6.84 µM

## CCc1ccccc1NC(=O)CN(C)c1nccc2c1oc1ccccc12 [T5712071]
  Score Lact.: 0.8
Mus musculus, Astrocyte
  EC50: 1.14 µM

## Cc1cccc(NC(=O)c2ccc(S(=O)(=O)Nc3ccccc3)cc2)n1 [T6125251]
  Score Lact.: 0.51

## CCOc1ccc(CN(C)CC(=O)Nc2cccc(C)c2)cc1OC [T5318833]
  Score Lact.: 0.42

## CC(=O)N1CCCc2cc(S(=O)(=O)Nc3ccc(OC(F)(F)F)cc3)ccc21 [G855-0183]
  Score Lact.: 0.54

## CC(=O)N1CC(C)(C)c2cc(S(=O)(=O)NCc3ccc(C)cc3)ccc21 [L302-0069]
  Score Lact.: 0.55

## COc1ccc(NS(=O)(=O)c2cccc(NC(=O)c3ccc[nH]3)c2)cc1 [T0517-4117]
  Score Lact.: 0.91
Mus musculus, Astrocyte
  EC50: 5.43 µM

## COc1ccc(-c2csc(N3C(=O)CC4CS(=O)(=O)CC43)n2)cc1 (stereo not shown) [T5832764]
  Score Lact.: 0.60
  EC50: 4.02 µM

## COc1ccccc1NC(=O)CO/N=C(/N)c1cccc(C(C)(F)F)c1 [T5770640]
  Score Lact.: 0.55
Mus musculus, Astrocyte
  EC50: 4.86 µM

## O=C(O)C(=O)O.c1ccc(Cc2ccc(OCCn3ccnc3)cc2)cc1 [T5821723]
  Score Lact.: 0.73

## Cc1ccc(S(=O)(=O)Nc2ccc(F)c(F)c2F)cc1[N+](=O)[O-] [T5729557]
  Score Lact.: 0.88

## CCN(CC)C(=O)c1nc(CNC(=O)c2ccc3ccccc3n2)oc1C [T993-1787]
  Score Lact.: 0.36

## Cc1nc2ccccc2n1CCOc1ccc(Br)cc1 [T0505-4087]
  Score Lact.: 0.64

## CCN1C(=O)c2cccc3c(S(=O)(=O)Nc4ccc(OC)cc4OC)ccc1c23 [T5477696]
  Score Lact.: 0.44

## COc1ccc(NS(=O)(=O)c2ccc(NC(=O)C3CCCO3)cc2)cc1 (stereo not shown) [T5329723]
  Score Lact.: 0.53

## Cc1cccc(NC(=O)NC2CCN(c3nc4ccccc4n(C)c3=O)CC2)c1 [L932-0267]
  Score Lact.: 0.53
Mus musculus, Astrocyte
  EC50: 4.64 µM

## C1=Cc2ncnc(NCc3ccccc3CN3CCOCC3)c2C1 [T5790476]
  Score Lact.: 0.79
Mus musculus, Astrocyte
  EC50: 3.98 µM

## CCCCN1C(=O)C(C)(C(=O)Nc2ccc(OCC)cc2)Oc2cccnc21 (stereo not shown) [P621-1364]
  Score Lact.: 0.43

## O=S(=O)(Nc1ccc(Cl)cc1)c1ccc(F)c(Cl)c1 [T6947848]
  Score Lact.: 0.98

## CCc1cccc(NS(=O)(=O)c2ccc3c(c2)CCCN3C(C)=O)c1 [G855-0143]
  Score Lact.: 0.56

## CC(=O)c1c(C)[nH]c(C(=O)N(C)Cc2ccc(C)cc2C)c1C [T5705522]
  Score Lact.: 0.85

## Cc1cccc(NS(=O)(=O)c2ccc(F)c(Cl)c2)c1 [F3394-1364]
  Score Lact.: 0.33
  EC50: 5.87 µM

## COc1ccc(CC(=O)Nc2ccc(C)c(C)c2)cc1OC [Y030-2832]
  Score Lact.: 0.34

## Cc1c(O)ccc2c(CN(C)CC3COc4ccccc4O3)cc(=O)oc12 (stereo not shown) [T5494352]
  Score Lact.: 0.44

## COc1ccc(S(=O)(=O)Nc2ccc(N3CCCCS3(=O)=O)cc2)cc1F [F2794-0128]
  Score Lact.: 0.62
  EC50: 9.85 µM

## O=S(=O)(Nc1ccc(S(=O)(=O)C(F)F)cc1)c1ccc(Cl)cc1 [T5311200]
  Score Lact.: 0.56

## CCc1ccc(NC(=O)Cc2cn(C)c3ncccc23)cc1 [M508-0370]
  Score Lact.: 0.60

## CN1c2ccccc2C(=O)NC1c1ccc(Cl)c(Cl)c1 (stereo not shown) [T5389517]
  Score Lact.: 0.33

## CCOc1ccc(C2=CCc3c2ncn(Cc2ccncc2)c3=O)cc1OCC [L115-0403]
  Score Lact.: 0.81
Mus musculus, Astrocyte
  EC50: 3.28 µM

## COc1cc(C)c(NC(=O)Cc2ccc(C)c(C)c2)cc1OC [T5783794]
  Score Lact.: 0.44
Mus musculus, Astrocyte
  EC50: 6.11 µM

## Cc1nnsc1C(=O)N1CCN(C(C)C)CC1 [Z606-5341]
  Score Lact.: 0.36

## CC1(C)Cc2cccc(OCC(O)CN3CCc4ccccc4C3)c2O1 (stereo not shown) [T0515-1783]
  Score Lact.: 0.59

## CC1=C(C)c2c(N)nc(CCc3nc4ccccc4[nH]3)nc2C1 [T5719257]
  Score Lact.: 0.74
Mus musculus, Astrocyte
  EC50: 2.85 µM

## O=C(Nc1ccc(S(=O)(=O)NCC2CCCO2)cc1)c1ccccc1 (stereo not shown) [Y031-0361]
  Score Lact.: 0.43

## COc1ccc(C(C)NC(=O)c2cc(=O)c3ccccc3o2)cc1I (stereo not shown) [T5710343]
  Score Lact.: 0.67
Mus musculus, Astrocyte
  EC50: 6.31 µM

## CCc1ccc(S(=O)(=O)Nc2c(C)nn(C)c2C)cc1 [T5753165]
  Score Lact.: 0.54

## Cc1cc(C)cc(NC(=O)CN2CCCC2c2ccc3c(c2)OCCCO3)c1 (stereo not shown) [T5993799]
  Score Lact.: 1.14
Mus musculus, Astrocyte
  EC50: 8.81 µM

## C1CCCC(NC2=NCCCNC23CCCCC3)CC1 [Z076-0028]
  Score Lact.: 0.56

## CN(C)c1ccc2ncnc(N3CCN(C(=O)c4ccc(Cl)cc4)CC3)c2c1 [M381-0730]
  Score Lact.: 0.57

## CN(C)S(=O)(=O)c1cccc(C(=O)Nc2ccc(Oc3ccccc3)cc2)c1 [T5393500]
  Score Lact.: 0.59

## CC(=O)Nc1cccc(NC(=O)CCc2nc(C)c(C)n2C2CCCC2)c1 [T5788339]
  Score Lact.: 0.75
Mus musculus, Astrocyte
  EC50: 3.9 µM

## Cc1nc2ncnn2c(NCc2ccco2)c1C [Z606-8298]
  Score Lact.: 0.38

## CCn1c(=O)c(C)nc2cc(C(=O)N(Cc3ccc(C)cc3)C3CC3)ccc21 [T5586091]
  Score Lact.: 0.45
Mus musculus, Astrocyte
  EC50: 5.36 µM

## CCCC(=O)NC1=NC(c2ccc3c(c2)CCO3)=CC1 [T5691896]
  Score Lact.: 0.38
Mus musculus, Astrocyte
  EC50: 5.21 µM

## CC(=O)N1CCc2cc(S(=O)(=O)NCC(C)c3ccccc3)ccc21 (stereo not shown) [T5707230]
  Score Lact.: 0.67
  EC50: 4.88 µM

## CC(=O)c1c(C)[nH]c(C(=O)C(C)N(C)Cc2ccc3c(c2)OCO3)c1C (stereo not shown) [T5798761]
  Score Lact.: 0.73

## Cc1ccc(-c2c[nH]c(NC(=O)c3ccncc3)n2)cc1[N+](=O)[O-] [T5694329]
  Score Lact.: 0.47
Mus musculus, Astrocyte
  EC50: 1.59 µM

## N#Cc1cc(C(=O)c2cc(I)ccc2O)cn(-c2ccc(I)c(Cl)c2)c1=O [T0516-6894]
  Score Lact.: 0.38
Mus musculus, Astrocyte
  EC50: 8.21 µM

## CCNc1cc(C)nc(Nc2ccc(NC(=O)C3=CC=CC3)cc2)n1 [G869-0071]
  Score Lact.: 0.63
Mus musculus, Astrocyte
  EC50: 4.9 µM

## Br.CCOc1ccc(C2(O)C(C)C3=C(CCN3)N2c2ccc(OC)cc2)cc1 (stereo not shown) [T0500-6629]
  Score Lact.: 0.61
Mus musculus, Astrocyte
  EC50: 2.61 µM
